Experimental data reported in US9375438B2, “Inhibitors of NCCa-ATP channels for therapy” (University of Maryland, Baltimore, priority 2007, dated 2016).

What was measured:
[1] = test system: NCCa-ATP channels in bEnd.3 cells; experiment: Perforated-patch whole-cell recording of endothelial cells, Na azide-induced ATP depletion; assay type: cell-based, murine; conditions: 1 μM glibenclamide; endothelial cells exposed to hypoxic conditions
Method: Patch clamp of endothelial cells was performed using a nystatin-perforated patch technique, to maintain the metabolic integrity of the cells. The identity of the activated channel can be assessed by measurement of the “reversal potential”, the potential at which an ion channel current reverses from inward to outward. With physiologically relevant concentrations of ions intracellularly and extracellularly (high potassium inside, high sodium outside), the reversal potential can unambiguously distinguish between a K^+ channel current such as KATP, which reverses negative to −50 mV and a non-selective cation channel current such as NCCa-ATP, which reverses near 0 mV.
Cell culture. Endothelial cell cultures from human brain microvessels, human aorta (ScienCell Research Laboratories), and murine brain microvessels (bEnd.3; ATCC), were grown at low density using media and supplements recommended by suppliers.

[2] = rat, in vivo
Method: (§1) SCI injury model. This study was performed in accordance with the guidelines of the Institutional Animal Care and Use Committee. Adult female Long-Evans rats (275-350 gm) were anesthetized (Ketamine, 60 mg/kg plus Xylazine, 7.5 mg/kg, i.p.). The dura at C4-5 was exposed via a left hemilaminectomy. A hemi-cervical spinal cord contusion was created using a blunt force impactor (1.3-mm impactor head driven by a 10 gm weight dropped vertically 25 mm) (Soblosky et al., 2001; Gensel et al., 2006). After SCI, animals were given 10 ml of glucose-free normal saline s.q. Rectal temperature was maintained at ˜37° C. using a servo-controlled warming blanket. Blood gases and serum glucose 10-15 min post-SCI were: pO2, 95±6 mm Hg; pCO2, 46±3 mm Hg; pH, 7.33±0.01; glucose 258±17 mg/dl in controls and pO2, 96±7 mm Hg; pCO2, 45±2 mm Hg; pH, 7.37±0.01; glucose 242±14 mg/dl in glibenclamide-treated animals.
(§2) Drug delivery. […] During the course of the project, slightly different formulations of drug were used, with the best results obtained using stock solutions made by placing 50 mg (or 25 mg) of drug into 10 ml DMSO, and infusion solutions made by placing 400 μl (or 800 μl) stock into 4.6 ml (or 4.2 ml) unbuffered saline (0.9% NaCl) and adjusting the pH to ˜8.5 using 0.1 N NaOH.

[3] = test system: rats with hemi-cervical spinal cord contusion (SCI); conditions: following SCI (Simard et al., 2007); cited from earlier work
[4] = test system: rats with hemi-cervical spinal cord contusion (SCI); experiment: SCI model: vimentin immunolabeling of capillaries; assay type: in vivo, rat; conditions: region of injury; glibenclamide 200 ng/h s.q. vs controls
Method: as §1, §2
Immunohistochemistry. […] Quantitative immunofluorescence was performed as described (Gerzanich et al., 2003).

COc1ccc(Cl)cc1C(=O)NCCc1ccc(S(=O)(=O)NC(=O)NC2CCCCC2)cc1 [glibenclamide]
block of Na azide-induced ohmic current [1]: blocked
blood pH [2]: 7.37±0.01
pCO2 [2]: 45±2 mm Hg
pO2 [2]: 96±7 mm Hg
serum glucose [2]: 242 ± 14 mg/dL
reduction in lesion volume [3]: 3 fold
appearance of vimentin(+) capillaries [4]: elongated and appeared more normal
